# Source: patent US12262713B2, “Method of controlling weeds” (SUMITOMO CHEMICAL COMPANY, LIMITED, priority 2018, dated 2025)
# Where a name gives a salt, the structure may show the parent alone.
# Legend:
# Assay type in all cases: in vivo
# [1] = system: glyphosate-sensitive Amaranthus palmeri; experiment: Foliar spray pot test in greenhouse, herbicidal effect (Example 29); conditions: foliar spray 200 L/ha at 18 days, rated 14 days after treatment, rating 0 to 100
# Protocol: (§1) In a plastic pot filled with soli were seeded glyphosate-resistant Amaranthus palmeri in which the number of copies of EPSPS gene had been increased (produced by Azlin Seed Service) and glyphosate-sensitive Amaranthus palmeri (produced by Azlin Seed Service). The weeds were cultivated in a greenhouse for 18 days, and then an aqueous spray liquid [i.e., a liquid prepared by diluting a predetermined amount of a trifludimoxazin formulation (i.e., an emulsifiable concentrate prepared by mixing 20 parts of trifludimoxazin with 80 parts of a liquid cocktail (i.e., a mixture of 5 parts of cyclohexanone and 1 part of SORPOL 2680X (manufactured by TOHO Chemical Industry Co., Ltd.))) with water containing a spreading agent] was sprayed uniformly from above the weeds at the amount of 200 L/ha using a sprayer. Subsequently, the weeds were allowed to grow in a greenhouse for 14 days, and then the herbicidal effect was examined. As a reference example, the same procedure was carried out, except that the trifludimoxazin formulation was replaced with a predetermined amount of a glyphosate formulation (i.e., a soluble liquid containing 660 g/L of glyphosate potassium salt: “ROUNDUP MAXLOAD” (manufactured by Nissan Chemical Corporation). The results are shown in the table 1.
# [2] = system: glyphosate-resistant Amaranthus palmeri in which the number of copies of EPSPS gene had been increased; experiment: as above; conditions: foliar spray 200 L/ha at 18 days, rated 14 days after treatment, rating 0 to 100
# Protocol: as §1
# [3] = system: glyphosate-resistant weeds (Amaranthus palmeri, waterhemp, kochia, marestail, Guernsey fleabane, fleabane, goosegrass, darnel, volunteer glyphosate-tolerant …); experiment: Foliar treatment pot test 21 days after seeding (Example 2); conditions: foliage application at 6.25, 12.5, 25, 50, 100 or 150 g/ha; 200 L/ha; fourteen days after the treatment
# Protocol: (§2) In a plastic pot filled with soil are seeded glyphosate-resistant Amaranthus palmeri in which the number of copies of EPSPS gene has been increased, glyphosate-resistant waterhemp in which the number of copies of EPSPS gene has been increased, glyphosate-resistant kochia in which the number of copies of EPSPS gene has been increased, marestail which is resistant to glyphosate by involving an ABC transporter, Guernsey fleabane which is resistant to glyphosate by involving an ABC transporter, fleabane which is resistant to glyphosate by involving an ABC transporter, glyphosate-resistant goosegrass having Thr102Ile, glyphosate-resistant goosegrass having Pro106Ser, glyphosate-resistant goosegrass having Pro106Ala, glyphosate-resistant goosegrass having Pro106Leu, glyphosate-resistant goosegrass having Thr102Ile and Pro106Ser, glyphosate-resistant darnel having Thr102Ile, glyphosate-resistant darnel having Pro106Ser, glyphosate-resistant darnel having Pro106Ala, glyphosate-resistant darnel having Pro106Leu, volunteer glyphosate-tolerant soybean, and volunteer glyphosate-tolerant cotton. The plants are cultivated in a greenhouse for 21 days, and then trifludimoxazin is applied to foliage of the plants at application rate of 6.25, 12.5, 25, 50, 100 or 150 g/ha. The amount of a liquid sprayed is 200 L/ha. Subsequently, the plants are cultivated in a greenhouse.
# [4] = system: glyphosate-resistant weeds (Amaranthus palmeri, waterhemp, kochia, marestail, Guernsey fleabane, fleabane, goosegrass, darnel, volunteer glyphosate-tolerant …); experiment: Soil treatment pot test on day of seeding (Example 1); conditions: soil treatment at 6.25, 12.5, 25, 50, 100 or 150 g/ha; 200 L/ha; twenty-eight days after the treatment
# Protocol: as §2, with “On the same day, the soil is treated with” for “The plants are cultivated in a greenhouse for 21 days, and then”, “at” for “is applied to foliage of”, “the” for “the plants at”
Compound,Effect on glyphosate-sensitive Amaranthus palmeri ([1]; application rate 6.25 g/ha),Effect on glyphosate-sensitive Amaranthus palmeri ([1]; application rate 12.5 g/ha),Effect on glyphosate-sensitive Amaranthus palmeri ([1]; application rate 25 g/ha),Effect on glyphosate-resistant Amaranthus palmeri ([2]; application rate 6.25 g/ha),Effect on glyphosate-resistant Amaranthus palmeri ([2]; application rate 12.5 g/ha),Effect on glyphosate-resistant Amaranthus palmeri ([2]; application rate 25 g/ha),effect against the weeds [3],effect against the weeds [4],Effect on glyphosate-sensitive Amaranthus palmeri ([1]; application rate 385 g/ha),Effect on glyphosate-sensitive Amaranthus palmeri ([1]; application rate 1540 g/ha),Effect on glyphosate-resistant Amaranthus palmeri ([2]; application rate 1540 g/ha),Effect on glyphosate-resistant Amaranthus palmeri ([2]; application rate 6160 g/ha)
"C#CCN1C(=O)C(F)(F)Oc2cc(F)c(-n3c(=O)n(C)c(=S)n(C)c3=O)cc21 [Trifludimoxazin, trifludimoxazin]",65,70,80,100,100,100,significant effect,significant effect,,,,
"O=C(O)CNCP(=O)(O)O [Glyphosate potassium salt, glyphosate potassium salt]",,,,,,,,,100,100,20,70
